Source: the CheMixHub drug solubility set

Assay: xn = mol fraction of the nth substance listed, in the solute-free solvent

CCCCN1CCCCC1C(=O)Nc1c(C)cccc1C.Cl.O (configuration not stated) + CO + O
solubility (g/100 g solution)
Settings | 293.15 K | 298.15 K | 303.15 K | 308.15 K | 313.15 K | 318.15 K | 323.15 K | 328.15 K | 333.15 K
x2 = 0.1 | 2.92 | 3.74 | 5.36 | 6.77 | 8.14 | 9.76 | 11.3 | 13.1 | 14.9
x2 = 0.2 | 3.04 | 4.11 | 5.31 | 7.06 | 9.3 | 11.4 | 14.1 | 15.8 | 19.5
x2 = 0.3 | 3.57 | 4.29 | 5.13 | 7.32 | 10.9 | 14.7 | 19.7 | 25.1 | 30.3
x2 = 0.4 | 3.64 | 4.18 | 5.89 | 7.92 | 11.9 | 17.4 | 22.3 | 28 | 33.2
x2 = 0.5 | 4.08 | 4.96 | 6.91 | 9.37 | 13.3 | 18.7 | 23.4 | 28.9 | 35.2
x2 = 0.6 | 5.88 | 6.91 | 8.26 | 10.9 | 14.8 | 19.1 | 23.4 | 29.8 | 35.8
x2 = 0.7 | 7.34 | 8.09 | 9.74 | 12.7 | 16.6 | 19.9 | 23.5 | 30.3 | 36.2
x2 = 0.8 | 8.13 | 9.32 | 12 | 14.3 | 17.3 | 20.6 | 24.5 | 30.2 | –
x2 = 0.9 | 8.65 | 10.1 | 13 | 16 | 18.9 | 21.6 | 25.4 | 30.3 | –

O=C(CC(=O)c1ccccc1)c1ccccc1 + CO + O
solubility (g/100 g solution)
Settings | 278.15 K | 283.15 K | 288.15 K | 293.15 K | 298.15 K | 303.15 K | 308.15 K | 313.15 K | 318.15 K
x2 = 0.2 | 0.0215 | 0.0248 | 0.0305 | 0.0358 | 0.0488 | 0.0621 | 0.0667 | 0.0775 | 0.0881
x2 = 0.4 | 0.0257 | 0.0323 | 0.039 | 0.0541 | 0.0826 | 0.13 | 0.162 | 0.236 | 0.322
x2 = 0.6 | 0.165 | 0.351 | 0.562 | 0.643 | 0.783 | 0.822 | 0.987 | 1.02 | 1.05
x2 = 0.8 | 0.491 | 0.788 | 1.01 | 1.11 | 1.35 | 1.7 | 1.98 | 2.52 | 2.72

O=[N+]([O-])c1cc[nH]n1 + CO + O
solubility (g/100 g solution)
Settings | 283.15 K | 288.15 K | 293.15 K | 298.15 K | 303.15 K | 308.15 K | 313.15 K | 318.15 K | 323.15 K
x2 = 0.05881 | 0.466 | 0.609 | 0.793 | 1.01 | 1.33 | 1.69 | 2.27 | 2.94 | 3.85
x2 = 0.1233 | 0.564 | 0.712 | 0.875 | 1.08 | 1.38 | 1.73 | 2.29 | 2.92 | 3.79
x2 = 0.1942 | 0.925 | 1.17 | 1.41 | 1.73 | 2.13 | 2.68 | 3.46 | 4.36 | 5.66
x2 = 0.2727 | 1.15 | 1.42 | 1.77 | 2.15 | 2.73 | 3.42 | 4.48 | 5.7 | 7.33
x2 = 0.3599 | 1.39 | 1.69 | 2.12 | 2.57 | 3.22 | 4.01 | 5 | 6.42 | 8.34
x2 = 0.4576 | 1.45 | 1.83 | 2.28 | 2.77 | 3.46 | 4.3 | 5.39 | 6.94 | 8.92
x2 = 0.5675 | 1.51 | 1.85 | 2.27 | 2.8 | 3.45 | 4.33 | 5.46 | 6.85 | 8.68
x2 = 0.6923 | 1.5 | 1.84 | 2.25 | 2.74 | 3.41 | 4.19 | 5.28 | 6.7 | 8.39
x2 = 0.835 | 1.44 | 1.82 | 2.25 | 2.79 | 3.66 | 4.99 | 6.1 | 7.64 | 9.23

O=c1[nH]cc(F)c(=O)[nH]1 + O + C1CCOC1
solubility (g/100 g solution)
Settings | 283.15 K | 288.15 K | 293.15 K | 298.15 K | 303.15 K | 308.15 K | 313.15 K | 318.15 K | 323.15 K
x2 = 0.5001 | 0.119 | 0.145 | 0.171 | 0.198 | 0.236 | 0.281 | 0.337 | 0.424 | 0.513
x2 = 0.7273 | 0.219 | 0.264 | 0.307 | 0.36 | 0.423 | 0.498 | 0.61 | 0.721 | 0.868
x2 = 0.8572 | 0.382 | 0.44 | 0.504 | 0.585 | 0.675 | 0.811 | 0.97 | 1.08 | 1.3
x2 = 0.9412 | 0.615 | 0.702 | 0.795 | 0.91 | 1.05 | 1.22 | 1.45 | 1.74 | 1.93
